Organism: Rattus norvegicus
Assay: DrugMatrix - Regimen: Daily Repeat
Assay type: toxicity, organism-based, Sprague-Dawley
Design: regimen Daily Repeat, gender Male, age 6-8 weeks
Conditions: in vivo, po, route oral GAVAGE, vehicle .5 % CMC; for ABSOLUTE BASOPHIL / ABSOLUTE EOSINOPHIL / ABSOLUTE LYMPHOCYTE / ABSOLUTE MONOCYTE / ABSOLUTE SEGMENTED NEUTROPHIL / BASOPHIL / EOSINOPHIL / ERYTHROCYTE COUNT / HEMATOCRIT / HEMOGLOBIN / LEUKOCYTE COUNT / LYMPHOCYTE / MEAN CORPUSCULAR HEMOGLOBIN / MEAN CORPUSCULAR HEMOGLOBIN CONCENTRATION / MEAN CORPUSCULAR VOLUME / MONOCYTE / NEUTROPHIL / NUCLEATED RED BLOOD CELLS / PLATELET COUNT: tissue Blood; for ALANINE AMINOTRANSFERASE / ALBUMIN / ALKALINE PHOSPHATASE / ASPARTATE AMINOTRANSFERASE / BLOOD UREA NITROGEN / CARBON DIOXIDE / CHLORIDE / CHOLESTEROL / CREATINE PHOSPHOKINASE / CREATININE / GLUCOSE / LACTATE DEHYDROGENASE / LIPASE / PHOSPHORUS / POTASSIUM / SODIUM / TOTAL BILIRUBIN / TOTAL PROTEIN / URIC ACID: tissue Plasma
[1] = 100 mg/kg, 120 h, dose level Low, time 5 day
[2] = 2000 mg/kg, 72 h, dose level High, time 3 day
[3] = 2000 mg/kg, 120 h, dose level High, time 5 day

CN/C(=N/CCSCc1nc[nH]c1C)NC#N [CIMETIDINE]
ABSOLUTE BASOPHIL [1]: 0 CELLS/uL | ABSOLUTE EOSINOPHIL [1]: 36.33 CELLS/uL | ABSOLUTE LYMPHOCYTE [1]: 10440.33 CELLS/uL | ABSOLUTE MONOCYTE [1]: 206 CELLS/uL | ABSOLUTE SEGMENTED NEUTROPHIL [1]: 1017.33 CELLS/uL | BASOPHIL [1]: 0% | EOSINOPHIL [1]: 0.33% | ERYTHROCYTE COUNT [1]: 5.58 x10E6/uL | HEMATOCRIT [1]: 34.03% | HEMOGLOBIN [1]: 13.43 G/DL | LEUKOCYTE COUNT [1]: 11.7 x10E3/uL | LYMPHOCYTE [1]: 89.33% | MEAN CORPUSCULAR HEMOGLOBIN [1]: 24.07 pg | MEAN CORPUSCULAR HEMOGLOBIN CONCENTRATION [1]: 39.47 G/DL | MEAN CORPUSCULAR VOLUME [1]: 61 fL | MONOCYTE [1]: 1.67% | NEUTROPHIL [1]: 8.67% | NUCLEATED RED BLOOD CELLS [1]: 0 /100WBC | PLATELET COUNT [1]: 685.33 x10E3/uL | ALANINE AMINOTRANSFERASE [1]: 61.33 u/L | ALBUMIN [1]: 4.23 G/DL | ALKALINE PHOSPHATASE [1]: 391.33 u/L | ASPARTATE AMINOTRANSFERASE [1]: 101.67 u/L | BLOOD UREA NITROGEN [1]: 15.33 mg/dL | CARBON DIOXIDE [1]: 28 mmol/L | CHLORIDE [1]: 101 MEQ/L | CHOLESTEROL [1]: 69 mg/dL | CREATINE PHOSPHOKINASE [1]: 711.67 u/L | CREATININE [1]: 0.18 mg/dL | GLUCOSE [1]: 163 mg/dL | LACTATE DEHYDROGENASE [1]: 293 u/L | LIPASE [1]: 10.33 u/L | PHOSPHORUS [1]: 11.6 mg/dL | POTASSIUM [1]: 6.16 MEQ/L | SODIUM [1]: 141.5 MEQ/L | TOTAL BILIRUBIN [1]: 0.2 mg/dL | TOTAL PROTEIN [1]: 5.97 G/DL | URIC ACID [1]: 1.67 mg/dL | ABSOLUTE BASOPHIL [2]: 0 CELLS/uL | ABSOLUTE EOSINOPHIL [2]: 50 CELLS/uL | ABSOLUTE LYMPHOCYTE [2]: 13681 CELLS/uL | ABSOLUTE MONOCYTE [2]: 50 CELLS/uL | ABSOLUTE SEGMENTED NEUTROPHIL [2]: 2252.33 CELLS/uL | BASOPHIL [2]: 0% | EOSINOPHIL [2]: 0.33% | ERYTHROCYTE COUNT [2]: 5.85 x10E6/uL | HEMATOCRIT [2]: 36.93% | HEMOGLOBIN [2]: 14.33 G/DL | LEUKOCYTE COUNT [2]: 16.03 x10E3/uL | LYMPHOCYTE [2]: 84.33% | MEAN CORPUSCULAR HEMOGLOBIN [2]: 24.5 pg | MEAN CORPUSCULAR HEMOGLOBIN CONCENTRATION [2]: 38.8 G/DL | MEAN CORPUSCULAR VOLUME [2]: 63.17 fL | MONOCYTE [2]: 0.33% | NEUTROPHIL [2]: 15% | NUCLEATED RED BLOOD CELLS [2]: 0.33 /100WBC | PLATELET COUNT [2]: 1342.33 x10E3/uL | ALANINE AMINOTRANSFERASE [2]: 56 u/L | ALBUMIN [2]: 4.13 G/DL | ALKALINE PHOSPHATASE [2]: 392.67 u/L | ASPARTATE AMINOTRANSFERASE [2]: 83.33 u/L | BLOOD UREA NITROGEN [2]: 18 mg/dL | CARBON DIOXIDE [2]: 32.33 mmol/L | CHLORIDE [2]: 98.33 MEQ/L | CHOLESTEROL [2]: 86.67 mg/dL | CREATINE PHOSPHOKINASE [2]: 295 u/L | CREATININE [2]: 0.24 mg/dL | GLUCOSE [2]: 145.67 mg/dL | LACTATE DEHYDROGENASE [2]: 334.33 u/L | LIPASE [2]: 17 u/L | PHOSPHORUS [2]: 11.87 mg/dL | POTASSIUM [2]: 7.13 MEQ/L | SODIUM [2]: 141.97 MEQ/L | TOTAL BILIRUBIN [2]: 0.17 mg/dL | TOTAL PROTEIN [2]: 5.67 G/DL | URIC ACID [2]: 1.5 mg/dL | ABSOLUTE BASOPHIL [3]: 0 CELLS/uL | ABSOLUTE EOSINOPHIL [3]: 104.67 CELLS/uL | ABSOLUTE LYMPHOCYTE [3]: 19446 CELLS/uL | ABSOLUTE MONOCYTE [3]: 531.33 CELLS/uL | ABSOLUTE SEGMENTED NEUTROPHIL [3]: 1118 CELLS/uL | BASOPHIL [3]: 0% | EOSINOPHIL [3]: 0.67% | ERYTHROCYTE COUNT [3]: 5.6 x10E6/uL | HEMATOCRIT [3]: 34.37% | HEMOGLOBIN [3]: 14 G/DL | LEUKOCYTE COUNT [3]: 21.2 x10E3/uL | LYMPHOCYTE [3]: 91.33% | MEAN CORPUSCULAR HEMOGLOBIN [3]: 25.03 pg | MEAN CORPUSCULAR HEMOGLOBIN CONCENTRATION [3]: 40.77 G/DL | MEAN CORPUSCULAR VOLUME [3]: 61.33 fL | MONOCYTE [3]: 2.33% | NEUTROPHIL [3]: 5.67% | NUCLEATED RED BLOOD CELLS [3]: 0 /100WBC | PLATELET COUNT [3]: 1356.67 x10E3/uL | ALANINE AMINOTRANSFERASE [3]: 58 u/L | ALBUMIN [3]: 4.07 G/DL | ALKALINE PHOSPHATASE [3]: 363 u/L | ASPARTATE AMINOTRANSFERASE [3]: 88.33 u/L | BLOOD UREA NITROGEN [3]: 19.33 mg/dL | CARBON DIOXIDE [3]: 25 mmol/L | CHLORIDE [3]: 100.33 MEQ/L | CHOLESTEROL [3]: 60 mg/dL | CREATINE PHOSPHOKINASE [3]: 520.33 u/L | CREATININE [3]: 0.3 mg/dL | GLUCOSE [3]: 225 mg/dL | LACTATE DEHYDROGENASE [3]: 221.33 u/L | LIPASE [3]: 8 u/L | PHOSPHORUS [3]: 13.4 mg/dL | POTASSIUM [3]: 5.31 MEQ/L | SODIUM [3]: 143.57 MEQ/L | TOTAL BILIRUBIN [3]: 0.2 mg/dL | TOTAL PROTEIN [3]: 5.73 G/DL | URIC ACID [3]: 1.9 mg/dL

Reference: ChEMBL document CHEMBL3885881, “DrugMatrix”
